# Test results: patent US9493432B2, “Cyclopentylbenzamide derivatives and their use for the treatment of psychotic and cognitive disorders” (Takeda Pharmaceutical Company Limited, priority 2013, dated 2016)
# What was measured:
# [1] = molecular target: human orexin receptor 2 (Homo sapiens (Human), UniProt O43614); assay: Orexin antagonist activity, intracellular calcium FLIPR assay (orexin receptor 2); format: cell-based; conditions: RBL-2H3 cells stably expressing human orexin receptor 2; Ca2+ dye FLIPR; compound 15 minutes before orexin-A at approximately 80% maximal response; read-out: Human Orexin2R IC50
# Experimental: (§1) Orexin antagonist activity was determined by measuring changes in intracellular calcium levels using a Ca^2+ sensitive fluorescent dye. The changes in fluorescent signal were monitored by Fluorescent Imaging Plate Reader (FLIPR™) technology available from Molecular Devices, LLC, U.S.A. Orexin mediated increases in intracellular Ca^2+ concentration were readily detected upon activation with orexin-A. Twenty-four hours prior to the assay, RBL-2H3 cells stably expressing either human orexin receptor 1 or human orexin receptor 2 were seeded in cell culture medium in black, clear-bottom 384-well plates (commercially available from Corning Inc., U.S.A.) and grown overnight at 37° C., 5% CO2. On the day of the assay, cell culture media was removed and cells were loaded with Calcium 5 Dye (commercially sold by Molecular Devices, LLC, U.S.A.) for 1 hour at 37° C., 5% CO2. Test compounds (at 10 point half log concentration response curves from 10 μM) were added to cells for 15 minutes prior to the addition of orexin-A to all wells, to achieve a final concentration that produces approximately an 80% maximal response. The IC50 values were determined from ten point concentration response curves. Curves were generated using the average of two wells for each data point.
# [2] = molecular target: human orexin receptor 1 (Homo sapiens (Human), UniProt O43613); assay: Orexin antagonist activity, intracellular calcium FLIPR assay (orexin receptor 1); format: cell-based; conditions: RBL-2H3 cells stably expressing human orexin receptor 1; Ca2+ dye FLIPR; compound 15 minutes before orexin-A at approximately 80% maximal response; read-out: Human Orexin1R IC50
# Experimental: as §1
# Sequence of human orexin receptor 1 (O43613 whole entry): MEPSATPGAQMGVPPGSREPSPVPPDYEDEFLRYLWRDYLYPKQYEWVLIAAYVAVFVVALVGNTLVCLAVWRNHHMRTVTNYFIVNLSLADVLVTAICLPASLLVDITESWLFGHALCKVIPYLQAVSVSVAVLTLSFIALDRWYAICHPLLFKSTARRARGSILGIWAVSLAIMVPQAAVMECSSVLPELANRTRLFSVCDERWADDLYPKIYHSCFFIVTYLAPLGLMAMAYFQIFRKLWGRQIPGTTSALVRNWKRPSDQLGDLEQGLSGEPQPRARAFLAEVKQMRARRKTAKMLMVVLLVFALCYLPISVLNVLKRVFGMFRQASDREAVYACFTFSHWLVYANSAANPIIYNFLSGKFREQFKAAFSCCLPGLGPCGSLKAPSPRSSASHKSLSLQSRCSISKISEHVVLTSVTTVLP
# Sequence of human orexin receptor 2 (O43614 whole entry): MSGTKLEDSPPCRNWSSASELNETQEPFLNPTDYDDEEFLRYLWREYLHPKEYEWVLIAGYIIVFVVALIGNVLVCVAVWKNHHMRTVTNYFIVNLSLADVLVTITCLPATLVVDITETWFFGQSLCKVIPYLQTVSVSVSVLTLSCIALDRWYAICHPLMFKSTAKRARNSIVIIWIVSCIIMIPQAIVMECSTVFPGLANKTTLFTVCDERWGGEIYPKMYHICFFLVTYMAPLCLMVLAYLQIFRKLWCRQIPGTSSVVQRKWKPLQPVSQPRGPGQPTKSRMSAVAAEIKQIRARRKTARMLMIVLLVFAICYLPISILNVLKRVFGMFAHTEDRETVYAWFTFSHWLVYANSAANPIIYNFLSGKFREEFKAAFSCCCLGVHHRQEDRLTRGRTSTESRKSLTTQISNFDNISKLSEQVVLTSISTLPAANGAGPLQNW
Compound,IC50 [1],IC50 [2]
"O=C(N[C@H]1CCC[C@@H]1Nc1nc2ccc(F)cc2s1)c1ccccc1-n1cccn1 [Example 35, N-[(1S,2S)-2-[(6-Fluoro-1,3-benzothiazol-2-yl)amino]cyclopentyl]-2-(1H-pyrazol-1-yl)benzamide]",4300 nM,6.7 nM
"COc1cccc(OC)c1C(=O)N[C@@H]1CCC[C@H]1Nc1nc2ccc(Cl)cc2s1 [Example 14, N-[(1R,2R)-2-[(6-Chloro-1,3-benzothiazol-2-yl)amino]cyclopentyl]-2,6-dimethoxybenzamide]",680 nM,1000 nM
"O=C(N[C@H]1CCC[C@@H]1Nc1nc2c(Cl)cncc2s1)c1ccccc1-n1nccn1 [Example 96, N-[(1S,2S)-2-({7-Chloro-[1,3]thiazolo[5,4-c]pyridin-2-yl}amino)cyclopentyl]-2-(2H-1,2,3-triazol-2-yl)benzamide]",> 10000 nM,480 nM
"CCOc1cccc(OCC)c1C(=O)N[C@H]1CCC[C@H]1Nc1nc2ccccc2o1 [Example 18, N-[(1S,2R)-2-[(1,3-Benzoxazol-2-yl)amino]cyclopentyl]-2,6-diethoxy-benzamide]",460 nM,25 nM
"O=C(N[C@H]1CCC[C@@H]1Nc1nc2ccc(F)cc2s1)c1ccccc1-c1ncccn1 [Example 40, N-[(1S,2S)-2-[(6-Fluoro-1,3-benzothiazol-2-yl)amino]cyclopentyl]-2-(pyrimidin-2-yl)benzamide]",3300 nM,15 nM
"Cc1noc(-c2ccccc2C(=O)N[C@H]2CCC[C@@H]2Nc2nc3ccc(F)cc3s2)n1 [Example 39, N-[(1S,2S)-2-[(6-Fluoro-1,3-benzothiazol-2-yl)amino]cyclopentyl]-2-(3-methyl-1,2,4-oxadiazol-5-yl)benzamide]",3800 nM,14 nM
"O=C(N[C@H]1CCC[C@@H]1Nc1nc2ccc(Cl)cc2s1)c1ccccc1-n1nccn1 [Example 91, N-[(1S,2S)-2-[(6-Chloro-1,3-benzothiazol-2-yl)amino]cyclopentyl]-2-(2H-1,2,3-triazol-2-yl)benzamide]",4700 nM,
"COc1ccccc1C(=O)N[C@H]1CCC[C@@H]1Nc1nc2ccc(F)cc2s1 [Example 50, N-[(1S,2S)-2-[(6-Fluoro-1,3-benzothiazol-2-yl)amino]cyclopentyl]-2-methoxybenzamide]",3400 nM,190 nM
"O=C(N[C@H]1CCCC1Nc1nc2ccc(F)cc2s1)c1ccccc1-n1nccn1 (stereo in doubt) [Example 75, N-[(1S,2R)-2-[(6-Fluoro-1,3-benzothiazol-2-yl)amino]cyclopentyl]-2-(2H-1,2,3-triazol-2-yl)benzamide]",260 nM,5 nM
"Cc1ccc(-n2nccn2)c(C(=O)N[C@H]2CCC[C@@H]2Nc2nc3ccc(F)cc3s2)c1 [Example 16, N-[(1S,2S)-2-[(6-Fluoro-1,3-benzothiazol-2-yl)amino]cyclopentyl]-5-methyl-2-(2H-1,2,3-triazol-2-yl)benzamide]",2000 nM,13 nM
"Cc1ccc(-n2nccn2)c(C(=O)NC2CCCC2Cc2nc3ccc(Cl)cc3s2)c1 (centres unmarked) [Example 33, N-{2-[(6-Chloro-1,3-benzothiazol-2-yl)methyl]cyclopentyl}-5-methyl-2-(2H-1,2,3-triazol-2-yl)benzamide]",,51 nM
"COc1cccc(OC)c1C(=O)N[C@@H]1COC[C@H]1Nc1nc2ccc(F)cc2s1 (relative stereo) [Example 65, trans-N-{4-[(6-Fluoro-1,3-benzothiazol-2-yl)amino]oxolan-3-yl}-2,6-dimethoxybenzamide]",> 10000 nM,29 nM
"CCOC(=O)N1CC(NC(=O)c2c(OC)cccc2OC)C(Nc2nc3ccc(Cl)cc3s2)C1 (stereo not drawn) [Example 23, Ethyl cis-3-[(6-Chloro-1,3-benzothiazol-2-yl)amino]-4-[(2,6-dimethoxy-benzene)amido]pyrrolidine-1-carboxylate]",620 nM,65 nM
"O=C(N[C@H]1CCC[C@@H]1Nc1nc2ccc(F)cc2s1)c1ccccc1-n1ccnn1 [Example 73, N-[(1S,2S)-2-[(6-Fluoro-1,3-benzothiazol-2-yl)amino]cyclopentyl]-2-(1H-1,2,3-triazol-1-yl)benzamide]",> 10000 nM,35 nM
"COc1ccccc1C(=O)N(C)[C@H]1CCC[C@@H]1Nc1nc2ccc(F)cc2s1 [Example 77, N-[(1S,2S)-2-[(6-Fluoro-1,3-benzothiazol-2-yl)amino]cyclopentyl]-2-methoxy-N-methylbenzamide]",1600 nM,25 nM
"O=C(N[C@H]1CCC[C@@H]1Nc1nc2ccc(F)cc2s1)c1ccccc1F [Example 48, 2-Fluoro-N-[(1S,2S)-2-[(6-fluoro-1,3-benzothiazol-2-yl)amino]cyclopentyl]-benzamide]",3700 nM,160 nM

Compound,IC50 [1],IC50 [2]
"O=C(NC1COCC1Nc1nc2ccc(F)cc2s1)c1ccccc1-n1nccn1 (single isomer, unassigned) [Example 100, trans-N-{4-[(6-Fluoro-1,3-benzothiazol-2-yl)amino]oxolan-3-yl}-2-(2H-1,2,3-triazol-2-yl)benzamide]",> 10000 nM,22 nM
"O=C(N[C@H]1CCC[C@@H]1Nc1nc2ccc(F)cc2s1)c1cc(Cl)ccc1-n1cccn1 [Example 74, 5-Chloro-N-[(1S,2S)-2-[(6-fluoro-1,3-benzothiazol-2-yl)amino]cyclopentyl]-2-(1H-pyrazol-1-yl)benzamide]",2100 nM,38 nM
"O=C(N[C@H]1CCC[C@@H]1Nc1nc2ccc(F)cc2s1)c1c(F)cccc1F [Example 47, 2,6-Difluoro-N-[(1S,2S)-2-[(6-fluoro-1,3-benzothiazol-2-yl)amino]-cyclopentyl]benzamide]",> 10000 nM,150 nM
"COc1cccc(OC)c1C(=O)N[C@H]1CCC[C@@H]1Nc1nc2cc(Cl)ccc2s1 [Example 6, N-[(1S,2S)-2-[(5-Chloro-1,3-benzothiazol-2-yl)amino]cyclopentyl]-2,6-dimethoxybenzamide]",> 10000 nM,35 nM
"COc1cccc(F)c1C(=O)N[C@H]1CCC[C@@H]1Nc1nc2ccc(F)cc2s1 [Example 46, 2-Fluoro-N-[(1S,2S)-2-[(6-fluoro-1,3-benzothiazol-2-yl)amino]cyclopentyl]-6-methoxybenzamide]",6300 nM,110 nM
"O=C(NC1CC(F)(F)CC1Nc1nc2ccc(Cl)cc2s1)c1ccccc1-n1nccn1 (single isomer, unassigned) [Example 105, N-{2-[(6-Chloro-1,3-benzothiazol-2-yl)amino]-4,4-difluorocyclopentyl}-2-(2H-1,2,3-triazol-2-yl)benzamide]",3540 nM,
"O=C(N[C@H]1CCC[C@@H]1Nc1nc2ccc(F)cc2s1)c1cc(F)ccc1-c1ncccn1 [Example 42, 5-Fluoro-N-[(1S,2S)-2-[(6-fluoro-1,3-benzothiazol-2-yl)amino]cyclopentyl]-2-(pyrimidin-2-yl)benzamide]",,24 nM
"O=C(N[C@H]1CCC[C@@H]1Nc1nc2ccc(F)cc2s1)c1ccccc1OC(F)F [Example 55, 2-(Difluoromethoxy)-N-[(1S,2S)-2-[(6-fluoro-1,3-benzothiazol-2-yl)amino]-cyclopentyl]benzamide]",,470 nM
"O=C(N[C@H]1CCC[C@@H]1Nc1nc2ccc(F)cc2s1)c1cc(F)ccc1-n1ccnn1 [Example 45, 5-Fluoro-N-[(1S,2S)-2-[(6-fluoro-1,3-benzothiazol-2-yl)amino]cyclopentyl]-2-(1H-1,2,3-triazol-1-yl)benzamide]",,80 nM
"O=C(NC1CC(F)(F)CC1Nc1nc2ccc(Cl)cc2s1)c1ccccc1-n1nccn1 (single isomer, unassigned) [Example 106, N-{2-[(6-Chloro-1,3-benzothiazol-2-yl)amino]-4,4-difluorocyclopentyl}-2-(2H-1,2,3-triazol-2-yl)benzamide]",441 nM,
"5-Methyl-N-((1S,2S)-2-(quinoxalin-2-ylamino)cyclopentyl)-2-(2H-1,2,3-triazol-2-yl) benzamide [Example 21]",5100 nM,
"Cc1cccc(C(=O)N[C@H]2CCC[C@@H]2Nc2nc3ccc(F)cc3s2)c1 [Example 57, N-[(1S,2S)-2-[(6-Fluoro-1,3-benzothiazol-2-yl)amino]cyclopentyl]-3-methylbenzamide]",,780 nM
"O=C(N[C@H]1CCC[C@@H]1Nc1nc2ccc(F)cc2s1)c1ccccc1C1CC1 [Example 58, 2-Cyclopropyl-N-[(1S,2S)-2-[(6-fluoro-1,3-benzothiazol-2-yl)amino]-cyclopentyl]benzamide]",,870 nM
"COc1cccc(C(=O)N[C@H]2CCC[C@@H]2Nc2nc3ccc(F)cc3s2)c1 [Example 56, N-[(1S,2S)-2-[(6-Fluoro-1,3-benzothiazol-2-yl)amino]cyclopentyl]-3-methoxybenzamide]",,540 nM
"O=C(NC1CCC[C@@H]1Nc1nc2ccc(F)cc2s1)c1c(Cl)cccc1Cl (stereo in doubt) [Example 52, 2,6-Dichloro-N-[(1S,2S)-2-[(6-fluoro-1,3-benzothiazol-2-yl)amino]-cyclopentyl]benzamide]",,270 nM
